# US8022102B2, “Unsaturated tetracyclic tetrahydrofuran derivatives” (Janssen Pharmaceutica, NV, priority 2004, dated 2011)
# Molecular target: T1, human cloned 5-HT2A receptor (Homo sapiens, UniProt P28223)
# T1 construct: expressed in transfected cells; host or cells: L929 cells
# Test: In vitro binding affinity for 5-HT2A receptor (radioligand binding)
# Details: h-5HT2A, human cloned 5-HT2A receptor, radioligand binding
# Protocol: During the incubation, the radioligands bind to the receptor. When equilibrium of binding is reached, the receptor bound radioactivity is separated from the non-bound radioactivity, and the receptor bound activity is counted. The interaction of the test compounds with the receptors is assessed in competition binding experiments. Various concentrations of the test compound are added to the incubation mixture containing the tissue preparation and the radioligand. Binding of the radioligand will be inhibited by the test compound in proportion to its binding affinity and its concentration. The affinities of the compounds for the 5-HT2 receptors were measured by means of radioligand binding studies conducted with: (a) human cloned 5-HT2A receptor, expressed in L929 cells using [^125I]R91150 as radioligand and (b) human cloned 5-HT2C receptor, expressed in CHO cells using [^3H]mesulergine as radioligand.
# T1 sequence (P28223 whole entry): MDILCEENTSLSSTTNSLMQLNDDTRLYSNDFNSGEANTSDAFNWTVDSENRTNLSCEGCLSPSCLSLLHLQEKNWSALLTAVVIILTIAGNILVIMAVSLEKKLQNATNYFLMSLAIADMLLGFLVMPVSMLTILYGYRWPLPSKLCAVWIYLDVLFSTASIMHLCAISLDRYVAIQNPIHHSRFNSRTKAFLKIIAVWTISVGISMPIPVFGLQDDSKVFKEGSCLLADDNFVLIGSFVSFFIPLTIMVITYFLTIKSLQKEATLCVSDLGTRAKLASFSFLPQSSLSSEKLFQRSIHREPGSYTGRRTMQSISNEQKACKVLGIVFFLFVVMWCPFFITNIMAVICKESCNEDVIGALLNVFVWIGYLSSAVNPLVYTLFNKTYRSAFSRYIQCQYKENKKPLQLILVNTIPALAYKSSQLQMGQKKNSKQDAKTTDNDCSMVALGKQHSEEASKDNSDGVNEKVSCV
row,SMILES,IC50
1,CN(C[C@H]1CC2=C(O1)c1cc(F)ccc1Cc1ccccc12)C(=O)Oc1ccccc1 [Compound 111],200 nM

# Same assay, conditions: human cloned 5-HT2A receptor, radioligand binding; read-out: h-5HT2A (converted)
row,SMILES,IC50
1,CN(C[C@H]1CC2=C(O1)c1cc(F)ccc1Cc1ccccc12)C1CC(=O)NC1=O (mixture of isomers) [Compound 124],39.8 nM
2,"CNCC1CC2=C(O1)c1cc(F)ccc1Sc1ccccc12 (single isomer, unassigned) [Compound 13]",3.16 nM
3,NCC1CC2=C(O1)c1cc(F)ccc1Cc1ccccc12 (stereo not shown) [Compound 1],1.58 nM
4,CNCC1CC2=C(O1)c1cc(Br)ccc1Cc1ccccc12 (stereo not shown) [Compound 5],0.794 nM
5,CCCCc1ccc2c(c1)C1=C(CC(CNC)O1)c1ccccc1C2 (stereo not shown) [Compound 6],31.6 nM
6,CNCC1CC2=C(O1)c1cc(F)ccc1C(C)c1ccccc12 (stereo not shown) [Compound 8],31.6 nM
7,CCNCC1CC2=C(O1)c1cc(F)ccc1Sc1ccccc12 (stereo not shown) [Compound 18],0.398 nM
8,OCCNCC1CC2=C(O1)c1cc(F)ccc1Cc1ccccc12 (stereo not shown) [Compound 19],1.58 nM
9,CN(C)CC1CC2=C(O1)c1ccccc1Cc1ccccc12 (stereo not shown) [Compound 22],3.98 nM
10,CN(C)CC1CC2=C(O1)c1ccccc1Oc1ccccc12 (stereo not shown) [Compound 25],63.1 nM
11,CN(C)CC1CC2=C(O1)c1cc(F)ccc1Oc1ccccc12 (stereo not shown) [Compound 26],10 nM
12,CN(C)CC1CC2=C(O1)c1cc(Br)ccc1Oc1ccccc12 (stereo not shown) [Compound 27],7.94 nM
13,CN(C)CC1CC2=C(O1)c1cc(F)ccc1Sc1ccccc12 (stereo not shown) [Compound 28],0.398 nM
14,CN(CCO)CC1CC2=C(O1)c1cc(F)ccc1Cc1ccccc12 (stereo not shown) [Compound 31],2.51 nM
15,CN(CCO)CC1CC2=C(O1)c1cc(F)ccc1Oc1ccccc12 (stereo not shown) [Compound 32],15.8 nM
16,OC1CCN(CC2CC3=C(O2)c2cc(F)ccc2Cc2ccccc23)C1 (stereo not shown) [Compound 33],0.794 nM
17,OC1CCN(CC2CC3=C(O2)c2cc(F)ccc2Sc2ccccc23)C1 (stereo not shown) [Compound 34],0.126 nM
18,OC1CCCN(CC2CC3=C(O2)c2cc(F)ccc2Cc2ccccc23)C1 (stereo not shown) [Compound 37],1 nM
19,OCCC1CCN(CC2CC3=C(O2)c2cc(F)ccc2Cc2ccccc23)CC1 (stereo not shown) [Compound 38],0.316 nM
20,COc1cc2c(cc1OC)CN(CC1CC3=C(O1)c1cc(F)ccc1Cc1ccccc13)CC2 (stereo not shown) [Compound 40],6.31 nM
21,OCCN1CCN(CC2CC3=C(O2)c2cc(F)ccc2Cc2ccccc23)CC1 (stereo not shown) [Compound 41],5.01 nM
22,OCCN1CCN(CC2CC3=C(O2)c2cc(F)ccc2Sc2ccccc23)CC1 (stereo not shown) [Compound 42],3.16 nM

# Molecular target: T2, human cloned 5-HT2C receptor (Homo sapiens, UniProt P28335)
# T2 construct: expressed in transfected cells; host or cells: CHO cells
# T2 sequence (P28335 33-458): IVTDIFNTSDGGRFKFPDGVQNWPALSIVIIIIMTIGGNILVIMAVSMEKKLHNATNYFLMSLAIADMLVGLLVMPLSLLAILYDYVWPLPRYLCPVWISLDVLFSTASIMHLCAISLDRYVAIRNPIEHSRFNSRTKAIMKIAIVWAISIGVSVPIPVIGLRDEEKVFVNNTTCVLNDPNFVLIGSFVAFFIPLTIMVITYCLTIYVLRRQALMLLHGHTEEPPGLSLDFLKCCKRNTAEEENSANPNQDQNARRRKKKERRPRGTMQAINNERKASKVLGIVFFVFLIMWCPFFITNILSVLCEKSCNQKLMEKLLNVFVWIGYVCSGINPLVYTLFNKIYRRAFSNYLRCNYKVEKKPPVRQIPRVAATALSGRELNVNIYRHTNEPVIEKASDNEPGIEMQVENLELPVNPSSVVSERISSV
# Test: In vitro binding affinity for 5-HT2C receptor (radioligand binding)
# Details: h-5HT2C, human cloned 5-HT2C receptor, radioligand binding
# Protocol: During the incubation, the radioligands bind to the receptor. When equilibrium of binding is reached, the receptor bound radioactivity is separated from the non-bound radioactivity, and the receptor bound activity is counted. The interaction of the test compounds with the receptors is assessed in competition binding experiments. Various concentrations of the test compound are added to the incubation mixture containing the tissue preparation and the radioligand. Binding of the radioligand will be inhibited by the test compound in proportion to its binding affinity and its concentration.
row,SMILES,IC50
1,CN(C[C@H]1CC2=C(O1)c1cc(F)ccc1Cc1ccccc12)C(=O)Oc1ccccc1 [Compound 111],3.98 nM

# Same assay, conditions: human cloned 5-HT2C receptor, radioligand binding; read-out: h-5HT2C (converted)
row,SMILES,IC50
1,"CNCC1CC2=C(O1)c1cc(F)ccc1Sc1ccccc12 (single isomer, unassigned) [Compound 13]",3.98 nM
2,NCC1CC2=C(O1)c1cc(F)ccc1Cc1ccccc12 (stereo not shown) [Compound 1],0.794 nM
3,CNCC1CC2=C(O1)c1cc(Br)ccc1Cc1ccccc12 (stereo not shown) [Compound 5],0.794 nM
4,CNCC1CC2=C(O1)c1cc(F)ccc1C(C)c1ccccc12 (stereo not shown) [Compound 8],10 nM
5,CCNCC1CC2=C(O1)c1cc(F)ccc1Sc1ccccc12 (stereo not shown) [Compound 18],1.26 nM
6,OCCNCC1CC2=C(O1)c1cc(F)ccc1Cc1ccccc12 (stereo not shown) [Compound 19],1 nM
7,CN(C)CC1CC2=C(O1)c1ccccc1Cc1ccccc12 (stereo not shown) [Compound 22],3.98 nM
8,CN(C)CC1CC2=C(O1)c1ccccc1Oc1ccccc12 (stereo not shown) [Compound 25],20 nM
9,CN(C)CC1CC2=C(O1)c1cc(F)ccc1Oc1ccccc12 (stereo not shown) [Compound 26],7.94 nM
10,CN(C)CC1CC2=C(O1)c1cc(Br)ccc1Oc1ccccc12 (stereo not shown) [Compound 27],2.51 nM
11,CN(CCO)CC1CC2=C(O1)c1cc(F)ccc1Cc1ccccc12 (stereo not shown) [Compound 31],1.58 nM
12,CN(CCO)CC1CC2=C(O1)c1cc(F)ccc1Oc1ccccc12 (stereo not shown) [Compound 32],25.1 nM
13,OC1CCN(CC2CC3=C(O2)c2cc(F)ccc2Cc2ccccc23)C1 (stereo not shown) [Compound 33],0.794 nM
14,OC1CCCN(CC2CC3=C(O2)c2cc(F)ccc2Cc2ccccc23)C1 (stereo not shown) [Compound 37],2 nM
15,OCCC1CCN(CC2CC3=C(O2)c2cc(F)ccc2Cc2ccccc23)CC1 (stereo not shown) [Compound 38],1.26 nM
16,COc1cc2c(cc1OC)CN(CC1CC3=C(O1)c1cc(F)ccc1Cc1ccccc13)CC2 (stereo not shown) [Compound 40],2.51 nM
17,OCCN1CCN(CC2CC3=C(O2)c2cc(F)ccc2Cc2ccccc23)CC1 (stereo not shown) [Compound 41],12.6 nM
18,OCCN1CCN(CC2CC3=C(O2)c2cc(F)ccc2Sc2ccccc23)CC1 (stereo not shown) [Compound 42],10 nM

# Molecular target: T3, human Dopamine D2L receptor (Homo sapiens, UniProt P14416)
# T3 construct: expressed in transfected cells; host or cells: CHO cells
# T3 sequence (P14416 whole entry): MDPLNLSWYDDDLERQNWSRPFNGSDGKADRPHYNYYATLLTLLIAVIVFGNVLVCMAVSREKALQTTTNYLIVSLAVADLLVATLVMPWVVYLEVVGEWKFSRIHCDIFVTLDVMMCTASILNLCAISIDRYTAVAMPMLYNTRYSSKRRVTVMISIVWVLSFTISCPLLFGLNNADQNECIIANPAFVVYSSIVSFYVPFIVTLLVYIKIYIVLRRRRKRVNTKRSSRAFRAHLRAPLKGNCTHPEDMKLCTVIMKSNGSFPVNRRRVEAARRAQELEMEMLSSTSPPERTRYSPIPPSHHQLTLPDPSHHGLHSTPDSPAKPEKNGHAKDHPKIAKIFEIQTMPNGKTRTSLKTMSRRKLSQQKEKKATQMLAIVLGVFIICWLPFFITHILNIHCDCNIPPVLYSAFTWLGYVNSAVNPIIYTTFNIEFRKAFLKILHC
# Test: In vitro binding affinity for human D2L receptor ([3H]Spiperone)
# Details: human D2L receptor-transfected CHO cell membranes, [3H]Spiperone; read-out: h-D2L (converted)
# Protocol: Frozen membranes of human Dopamine D2L receptor-transfected CHO cells were thawed, briefly homogenised using an Ultra-Turrax T25 homogeniser and diluted in Tris-HCl assay buffer containing NaCl, CaCl2, MgCl2, KCl (50, 120, 2, 1, and 5 mM respectively, adjusted to pH 7.7 with HCl) to an appropriate protein concentration optimised for specific and non-specific binding. Radioligand [^3H]Spiperone (NEN, specific activity ˜70 Ci/mmol) was diluted in assay buffer at a concentration of 2 nmol/L. Prepared radioligand (50 μl), along with 50 μl of either the 10% DMSO control, Butaclamol (10^−6 mol/l final concentration), or compound of interest, was then incubated (30 min, 37° C.) with 400 μl of the prepared membrane solution. Membrane-bound activity was filtered through a Packard Filtermate harvester onto GF/B Unifilterplates and washed with ice-cold Tris-HCl buffer (50 mM; pH 7.7; 6×0.5 ml). Filters were allowed to dry before adding scintillation fluid and counting in a Topcount scintillation counter. Percentage specific bound and competition binding curves were calculated using S-Plus software (Insightful).
row,SMILES,IC50
1,CN(C[C@H]1CC2=C(O1)c1cc(F)ccc1Cc1ccccc12)C1CC(=O)NC1=O (mixture of isomers) [Compound 124],> 10000 nM
2,"CNCC1CC2=C(O1)c1cc(F)ccc1Sc1ccccc12 (single isomer, unassigned) [Compound 13]",200 nM
3,CNCC1CC2=C(O1)c1cc(Br)ccc1Cc1ccccc12 (stereo not shown) [Compound 5],31.6 nM
4,CCCCc1ccc2c(c1)C1=C(CC(CNC)O1)c1ccccc1C2 (stereo not shown) [Compound 6],251 nM
5,CNCC1CC2=C(O1)c1cc(F)ccc1C(C)c1ccccc12 (stereo not shown) [Compound 8],2000 nM
6,CCNCC1CC2=C(O1)c1cc(F)ccc1Sc1ccccc12 (stereo not shown) [Compound 18],15.8 nM
7,OCCNCC1CC2=C(O1)c1cc(F)ccc1Cc1ccccc12 (stereo not shown) [Compound 19],63.1 nM
8,CN(C)CC1CC2=C(O1)c1ccccc1Oc1ccccc12 (stereo not shown) [Compound 25],1260 nM
9,CN(C)CC1CC2=C(O1)c1cc(F)ccc1Sc1ccccc12 (stereo not shown) [Compound 28],12.6 nM
10,OC1CCN(CC2CC3=C(O2)c2cc(F)ccc2Cc2ccccc23)C1 (stereo not shown) [Compound 33],39.8 nM
11,OC1CCN(CC2CC3=C(O2)c2cc(F)ccc2Sc2ccccc23)C1 (stereo not shown) [Compound 34],10 nM
12,OC1CCCN(CC2CC3=C(O2)c2cc(F)ccc2Cc2ccccc23)C1 (stereo not shown) [Compound 37],20 nM
13,OCCC1CCN(CC2CC3=C(O2)c2cc(F)ccc2Cc2ccccc23)CC1 (stereo not shown) [Compound 38],2 nM
14,COc1cc2c(cc1OC)CN(CC1CC3=C(O1)c1cc(F)ccc1Cc1ccccc13)CC2 (stereo not shown) [Compound 40],50.1 nM
15,OCCN1CCN(CC2CC3=C(O2)c2cc(F)ccc2Cc2ccccc23)CC1 (stereo not shown) [Compound 41],10 nM
16,OCCN1CCN(CC2CC3=C(O2)c2cc(F)ccc2Sc2ccccc23)CC1 (stereo not shown) [Compound 42],5.01 nM
